Experimental findings from US9216954B2, “Serine racemase inhibitor” (National University Corporation University of Toyama, priority 2012, dated 2015) are described below.

Molecules are shown by their SMILES.

The target in this test is T1, Recombinant SR (serine racemase) (Homo sapiens, UniProt Q9GZT4).
T1 construct: made in house; host or cells: Escherichia coli
T1 sequence (Q9GZT4 1-340): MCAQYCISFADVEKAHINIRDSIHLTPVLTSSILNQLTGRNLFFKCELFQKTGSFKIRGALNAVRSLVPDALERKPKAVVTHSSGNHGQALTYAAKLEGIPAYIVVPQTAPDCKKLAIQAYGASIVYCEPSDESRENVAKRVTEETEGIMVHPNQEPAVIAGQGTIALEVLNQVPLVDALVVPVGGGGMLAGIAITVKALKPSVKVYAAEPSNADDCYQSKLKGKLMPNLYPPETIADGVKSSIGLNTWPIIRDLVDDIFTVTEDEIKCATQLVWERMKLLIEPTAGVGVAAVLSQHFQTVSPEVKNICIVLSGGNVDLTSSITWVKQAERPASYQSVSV
Briefly: Serine racemase (SR) enzyme activity measurement: L-serine racemization reaction, D-serine quantified via Dsd1/DNP colorimetry. Format: biochemical. Conditions: compound 0.3 mM (footnote ‡); value in parentheses = malonic acid (control) in the same run. Here is the method: (1) L-Serine Racemization Reaction
(2) Quantitative Determination of D-serine
D-serine was quantitatively determined in accordance with the method proposed by Ito et al. (Analytical Biochemistry, 371: 167-172, 2007).
A solution including 25 μL of 100 mM HEPES (pH: 8.0), 20 μM PLP, and 2 μg of recombinant D-serine dehydratase 1 (Dsd1) was added to 25 μL of the reaction mixture (see (1)), and the mixture was reacted at 30° C. for 30 minutes.
In order to measure pyruvic acid produced from D-serine by Dsd1 using a colorimetric reaction, 50 μL of 0.05% DNP/2M HCl was added to 50 μL of the reaction solution, and the mixture was reacted at 30° C. for 5 minutes. After the addition of 100 μL of ethanol and 125 μL of 10 M NaOH, the mixture was sufficiently mixed, and reacted at room temperature for 10 minutes, and the absorbance at a wavelength of 515 nm was measured using a spectrophotometer.
For `O=C(Nc1ccc(Cl)c(Cl)c1)Nc1ccccc1NS(=O)(=O)c1ccc(Br)cc1` [ED-27, 4-Bromo-N-{2-[3-(3,4-dichloro-phenyl)-ureido]-phenyl}-benzenesulfonamide], the “% human (0. 3 mM)” value is reported as 48%. As for `COc1ccc(S(=O)(=O)Nc2ccccc2NC(=O)Nc2ccc(Cl)c(Cl)c2)cc1` [ED-31, N-{2-[3-(3,4-Dichloro-phenyl)-ureido]-phenyl}-4-methoxy-benzenesulfonamide], the “% human (0. 3 mM)” value was found to be 58%. Next, `O=C(Nc1ccc(Cl)cc1Cl)Nc1ccccc1NS(=O)(=O)c1ccc(Cl)cc1` [ED-36, 4-Chloro-N-{2-[3-(2,4-dichloro-phenyl)-ureido]-phenyl}-benzenesulfonamide]: 46%. Next, `Cc1ccc(/C=C/S(=O)(=O)Nc2ccccc2NC(=O)Nc2ccc(Cl)c(Cl)c2)cc1` [ED-37, 2-p-Tolyl-ethenesulfonic acid {2-[3-(3,4-dichloro-phenyl)-ureido]phenyl}-amide]: 48%; `O=C(O)CC(=O)O` [malonic acid, reference compound]: 51%.
